What was measured:
HeLa cells [1] = test: WST-1 cell viability and proliferation assay; format: cell-based, human; settings: 19 h; for cell proliferation rate (percent of DMSO control): 50 μM; for IC50: calculated from two and three experiments respectively
Description: (§1) HeLa human cervical carcinoma cell line, the human breast cancer cell line MCF7, the African green monkey kidney cell line BS-C-1 and the human colorectal carcinoma cell lines HCT116 and SW480 were maintained in Dulbecco's Modified Eagle's medium (DMEM, PAA, Pasching Austria). The colorectal cell line HT29 was cultured in McCoy's 5A medium (PAA, Pasching, Austria). The prostate carcinoma cells PC3 and the osteosarcoma cells Saos2 were cultured in RPMI medium (PAA, Pasching Austria). All media were supplemented with 10% fetal calf serum, L-glutamine, penicillin and streptomycin. All cell lines were maintained at 37° C. in a 5% CO2 humidified atmosphere.
(§2) The cell proliferation was determined as a function of the metabolic activity by means of the cell proliferation reagent WST-1 (Roche, Mannheim Germany). Cells were plated in quadruplicates into the wells of 96 well plates and were allowed to attach for 24 hours. Cells were then treated with different concentrations of the compounds for 19 hours. All samples contained 0.5% DMSO. Control cells were treated with 0.5% DMSO or 20 μM doxorubicin or 1 μM staurosporine. After the treatment the WST-1 reagent was added to the cells according to the manufacturer's protocol. The absorbance was measured with the TECAN Inifinite® M200 plate reader at 450/690 nm. The blank value was subtracted from each value and the percentage of viable cells was determined compared to the DMSO treated cells.
(§3) The biological activity of the indoloquinolizines was evaluated in different cell lines by means of WST-1 assay. Cells were treated with different compound concentrations (3.125 up to 50 μM) for 19 h. In HeLa cells the (−)-enantiomers of 1-01 and 1-04 caused the most dramatic decrease in cell proliferation rate with increasing concentrations (FIG. 3). At 50 μM concentration (−)-1-01 reduced the cell proliferation rate to 60% and (−)-1-04 to 67% (FIG. 3).

[2] = tested on: colorectal cell line HT29; test: WST-1 cell viability and proliferation assay; format: cell-based; settings: HT29, 3.125 up to 50 μM, 19 h
Description: as §1, §2, §3

osteosarcoma cells Saos2 = test: WST-1 cell viability and proliferation assay; format: cell-based; settings: Saos2, 3.125 up to 50 μM, 19 h
Description: as §1, §2, §3

[3] = tested on: prostate carcinoma cells PC3; test: WST-1 cell viability and proliferation assay; format: cell-based; settings: PC3, 3.125 up to 50 μM, 19 h
Description: as §1, §2, §3

HCT116 cells = test: Apo-ONE homogeneous caspase-3/7 assay (apoptosis); format: cell-based, human; settings: HCT116, 42 h of treatment
Description: as §1
(§4) Therefore we measured the caspase-3/7 activity in different cell lines with the Apo-ONE® homogeneous caspase-3/7 assay.
(§5) Caspase-3/7 activities were determined using the Apo-ONE® homogeneous caspase-3/7 assay (Promega, Mannheim Germany) according to the manufacturer's protocol. Briefly, cells were plated in quadruplicates in 384-well cell culture plate. After 24 hours cells were exposed for 42 hours to the compounds at different concentrations. Control cells were treated with 0.5% DMSO or staurosporine (STS). Subsequently cells were lysed with a lysis buffer containing the caspase-3/7 substrate Z-DEVD-R110 and were incubated at room temperature until further analysis. The fluorescence was detected with the TECAN Inifinite® M200 plate reader at excitation/emission wavelength 485/520 nm. The blank value was subtracted from each value and the relative caspase-3/7 activity was calculated compared to the DMSO treated cells.
(§6) These findings correlate with our results from the cell viability assays for these indoloquinolizine.

HeLa cells [4] = test: Apo-ONE homogeneous caspase-3/7 assay (apoptosis); format: cell-based, human; settings: 42 h of treatment
Description: as §1, §4, §5, §6

HT29 cell line = test: Apo-ONE homogeneous caspase-3/7 assay (apoptosis); format: cell-based; settings: HT29, 42 h of treatment
Description: as §1, §4, §5, §6

PC3 cell line = test: Apo-ONE homogeneous caspase-3/7 assay (apoptosis); format: cell-based; settings: PC3, 42 h of treatment
Description: as §1, §4, §5, §6

Saos2 cells = test: Apo-ONE homogeneous caspase-3/7 assay (apoptosis); format: cell-based; settings: Saos2, 42 h of treatment
Description: as §1, §4, §5, §6

all cell lines but Saos2 = test: Apo-ONE homogeneous caspase-3/7 assay (apoptosis), summary statement; format: cell-based; settings: all cell lines but Saos2, 42 h
Description: as §1, §4, §5, §6

HeLa cells [5] = test: FACS analysis of the cell cycle (propidium iodide DNA content); format: cell-based, human; settings: for cells in G1 phase / cells in G2/M phase: 24 h after treatment; for mitotic index: DMSO control 0.16
Description: HeLa human cervical carcinoma cell line, the human breast cancer cell line MCF7, and the human colorectal carcinoma cell line SW480 were maintained in Dulbecco's Modified Eagle's medium (DMEM, PAA, Pasching Austria). The colorectal cell line HT29 was cultured in McCoy's 5A medium (PAA, Pasching, Austria). DMEM medium was supplemented with 10% fetal calf serum, sodium pyruvate, non-essential amino acids, penicillin and streptomycin, McCoy's 5A medium was supplemented with 10% fetal calf serum, penicillin and streptomycin. All cell lines were cultured at 37° C. in a 5% CO2 humidified atmosphere. Further, fluorescent activated cell sorting (FACS) was used successfully to analyze the cell cycle and mitotic arrest under the influence of indoloquinolizines. HeLa cells were fixed and stained for FACS analysis 24 h after compound treatment. Cells were trypsinized and combined with any floating cells, pelleted, and resuspended in 1 ml PBS. Ice cold ethanol (70%) was added, and samples were incubated at −20° C. until analysis. After fixation the cells were pelleted, resuspended in 500 μl staining solution (50 μg/ml propidium iodide, 0.1 mg/ml RNase A, 0.05% Triton X-100) and incubated for 40 min at 37° C. 3 ml PBS were added; the cells were pelleted again and resuspended in 500 μl PBS. The DNA content was measured with a Becton Dickinson LSRII and analyzed with FlowJo 7.5 software. The cell cycle of compound treated HeLa cells was analyzed by fluorescence activated cell sorting (FIG. 1). […] A similar distribution is given in (−)-1-01 treated cells (FIGS. 1c and 1d); here 9% are in G1 and 38% in G2/M phase (25 μM) respectively; 8% in G1 and 40% in G2/M phase (50 μM). This means that the mitotic index is increased by more than two fold (from 0.16 to 0.38 respectively 0.40), indicating a mitotic arrest after compound treatment.

| Compound | cell proliferation rate (percent of DMSO control) (HeLa cells [1]) | IC50 (HeLa cells [1]; Homo sapiens) | reduction in cell viability [2] | decrease in the proliferation rate compared with HeLa (osteosarcoma cells Saos2) | reduction in cell viability [3] | activation of caspase-3/7 (HCT116 cells) | activation of caspase-3/7 (HeLa cells [4]) | caspase-3/7 activity detected (HT29 cell line) | caspase-3/7 activity detected (PC3 cell line) | activation of caspase-3/7 (Saos2 cells) | impact on the apoptosis (all cell lines but Saos2) | cells in G1 phase (HeLa cells [5]; 25 μM) | cells in G2/M phase (HeLa cells [5]; 25 μM) | mitotic index (HeLa cells [5]; 25 μM) | cells in G1 phase (HeLa cells [5]; 50 μM) | cells in G2/M phase (HeLa cells [5]; 50 μM) | mitotic index (HeLa cells [5]; 50 μM) | IC50 (HeLa cells [1]) |
| --- | --- | --- | --- | --- | --- | --- | --- | --- | --- | --- | --- | --- | --- | --- | --- | --- | --- | --- |
| COC(=O)C1=CC(C(=O)c2ccccc2O)=CN2CCc3c([nH]c4ccc(OC)cc34)C12C(=O)OC (single isomer, unassigned; (-)) [(−)-1-04, Dimethyl-3-(2-hydroxybenzoyl)-9-methoxy-6,7,12,12b-tetrahydro-indolo[2,3-a]quinolizine-1,12b-dicarboxylate] | 67% | 15.7 ± 1.43 µM | only a slight reduction in cell viability | more dramatic | only a slight reduction in cell viability | concentration dependent increase | concentration dependent increase | only at the 50 μM concentration | only at the 50 μM concentration | concentration dependent increase | did not have any impact on the apoptosis |  |  |  |  |  |  |  |
| COC(=O)C1=CC(C(=O)c2ccccc2O)=CN2CCc3c([nH]c4ccccc34)C12C(=O)OC (single isomer, unassigned; (-)) [(−)-1-01, Dimethyl-3-(2-hydroxybenzoyl)-6,7,12,12b-tetrahydroindolo[2,3a]quinolizine-1,12b-dicarboxylate] | 60% |  | only a slight reduction in cell viability | more dramatic | only a slight reduction in cell viability | concentration dependent increase | concentration dependent increase | only at the 50 μM concentration | only at the 50 μM concentration | concentration dependent increase | did not have any impact on the apoptosis | 9% | 38% | 0.38 | 8% | 40% | 0.40 | 28.4 ± 0.61 µM |
